Measured values as given in PubChem BioAssay AID330 (DTP/NCI, 2004).
Where “and” joins values, the source holds several entries; their conditions need not be identical. Equal values may be shown once. Toxic doses and inconclusive results are not listed. The calls were made as follows: active = survival T/C of 150% or more; inactive = T/C below 125% in these data.

Tested on: P388 leukemia ip, CD2F1 mice, survival T/C
Assay: NCI In Vivo Anticancer Drug Screen. Data for tumor model P388 Leukemia (intraperitoneal) in CD2F1 (CDF1) mice
Settings: endpoint: median survival time, higher = longer survival
Method in brief: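 Mice carrying the transplanted tumor received test compound or vehicle. Survival was recorded in each group, and the value is the treated-group measurement divided by that of the vehicle-treated control group.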

[1] = dose: 50.0 mg/kg/injection, schedule: Q01DX005 (ip), vehicle: saline with Tween-80
[2] = dose: 100.0 mg/kg/injection, schedule: Q01DX005 (ip), vehicle: saline with Tween-80
[3] = dose: 60.0 mg/kg/injection, schedule: Q01DX005 (ip), vehicle: saline with Tween-80
[4] = dose: 120.0 mg/kg/injection, schedule: Q01DX005 (ip), vehicle: saline with Tween-80
[5] = dose: 240.0 mg/kg/injection, schedule: Q01DX005 (ip), vehicle: saline with Tween-80
[6] = dose: 30.0 mg/kg/injection, schedule: Q01DX005 (ip), vehicle: saline with Tween-80
[7] = dose: 120.0 mg/kg/injection, schedule: Q01DX005 (ip), vehicle: Klucel (hydroxypropylcellulose) (HPC)
[8] = dose: 25.0 mg/kg/injection, schedule: Q04DX002 (ip), vehicle: saline

Measured: T/C

Cc1ncc2c(n1)CCC1=C2OS(=O)(=O)CC1N(C)C (stereo not drawn)
inactive: [1] 115 % of control | [2] 97 % of control

C=C1CCC2C(C)(C(=O)O)CCCC2(C)C1CCc1ccoc1 (stereo not drawn)
inactive: dose: 12.75 mg/kg/injection, schedule: Q01DX005 (ip), vehicle: Klucel + Tween-80 102 % of control | dose: 25.5 mg/kg/injection, schedule: Q01DX005 (ip), vehicle: Klucel + Tween-80 96 % of control | dose: 51.0 mg/kg/injection, schedule: Q01DX005 (ip), vehicle: Klucel + Tween-80 110 % of control | dose: 102.0 mg/kg/injection, schedule: Q01DX005 (ip), vehicle: Klucel + Tween-80 110 % of control

O=C(c1ccccc1)N(C(=O)c1ccccc1)c1ccccn1
inactive: dose: 12.5 mg/kg/injection, schedule: Q01DX009 (ip), vehicle: saline with Tween-80 103 % of control | dose: 25.0 mg/kg/injection, schedule: Q01DX009 (ip), vehicle: saline with Tween-80 106 % of control | dose: 50.0 mg/kg/injection, schedule: Q01DX009 (ip), vehicle: saline with Tween-80 112 % of control | dose: 100.0 mg/kg/injection, schedule: Q01DX009 (ip), vehicle: saline with Tween-80 87 % of control | dose: 200.0 mg/kg/injection, schedule: Q01DX009 (ip), vehicle: saline with Tween-80 86 % of control | dose: 400.0 mg/kg/injection, schedule: Q01DX009 (ip), vehicle: saline with Tween-80 93 % of control

CCCN(CCC)CC(=O)NC1CC(OC2CC(O)(C(C)=O)Cc3c(O)c4c(c(O)c32)C(=O)c2c(OC)cccc2C4=O)OC(C)C1O (stereo not drawn)
inactive: dose: 0.25 mg/kg/injection, schedule: Q01DX009 (ip), vehicle: water 107 % of control | dose: 0.5 mg/kg/injection, schedule: Q01DX009 (ip), vehicle: water 101 % of control | dose: 1.0 mg/kg/injection, schedule: Q01DX009 (ip), vehicle: water 107 % of control | dose: 2.0 mg/kg/injection, schedule: Q01DX009 (ip), vehicle: water 103 % of control | dose: 4.0 mg/kg/injection, schedule: Q01DX009 (ip), vehicle: water 100 % of control | dose: 8.0 mg/kg/injection, schedule: Q01DX009 (ip), vehicle: water 107 % of control

CC(C)(N)COC(=O)c1ccccc1C(=O)O
inactive: dose: 100.0 mg/kg/injection, schedule: Q01DX001 (ip), vehicle: saline 90 % of control | dose: 200.0 mg/kg/injection, schedule: Q01DX001 (ip), vehicle: saline 95 % of control | dose: 400.0 mg/kg/injection, schedule: Q01DX001 (ip), vehicle: saline 104 % of control

CCCCCCC(C/C=C\CCCCCCCC(=O)OC)OC(C)=O (stereo not drawn)
inactive: dose: 100.0 mg/kg/injection, schedule: Q04DX003 (ip), vehicle: saline with Tween-80 95 % of control | dose: 200.0 mg/kg/injection, schedule: Q04DX003 (ip), vehicle: saline with Tween-80 100 % of control | dose: 400.0 mg/kg/injection, schedule: Q04DX003 (ip), vehicle: saline with Tween-80 104 % of control

CNC(=O)OCn1cnc(Cl)c1Cl
inactive: dose: 50.0 mg/kg/injection, schedule: Q01DX005 (ip), vehicle: saline 93 % of control | dose: 100.0 mg/kg/injection, schedule: Q01DX005 (ip), vehicle: saline 101 % of control | dose: 200.0 mg/kg/injection, schedule: Q01DX005 (ip), vehicle: saline 102 % of control

COc1ccc(C2CC(C)(N3CCCC3)Oc3cc4c(cc32)OCO4)cc1 (stereo not drawn)
inactive: [3] 101 % of control | [4] 92 % of control | [5] 98 % of control

O=C(CSc1nnc(CSc2ccc(Cl)cc2)n1-c1ccccc1)NC(=O)Nc1ccccc1
inactive: dose: 7.5 mg/kg/injection, schedule: Q01DX005 (ip), vehicle: saline with Tween-80 94 % of control | dose: 15.0 mg/kg/injection, schedule: Q01DX005 (ip), vehicle: saline with Tween-80 90 % of control | [6] 86 % of control | [3] 88 % of control | [5] 89 % of control (2×) and 96 % of control

COc1cc(COC(=O)c2ccc(CSc3ccc(Cl)cc3)o2)cc(OC)c1OC
inactive: [1] 99 % of control | [2] 99 % of control

O=C(/C=C1\Nc2ccccc2N(C(=O)c2ccccc2)C1c1ccccc1)c1ccccc1 (stereo not drawn)
inactive: dose: 7.5 mg/kg/injection, schedule: Q01DX005 (ip), vehicle: Klucel (hydroxypropylcellulose) (HPC) 103 % of control | dose: 15.0 mg/kg/injection, schedule: Q01DX005 (ip), vehicle: Klucel (hydroxypropylcellulose) (HPC) 88 % of control | dose: 30.0 mg/kg/injection, schedule: Q01DX005 (ip), vehicle: Klucel (hydroxypropylcellulose) (HPC) 88 % of control and 91 % of control | [7] 88 % of control

N#CC1(N)CC2CCCCC2CC1c1ccccc1 (stereo not drawn)
inactive: dose: 100.0 mg/kg/injection, schedule: Q04DX002 (ip), vehicle: saline with Tween-80 106 % of control | dose: 200.0 mg/kg/injection, schedule: Q04DX002 (ip), vehicle: saline with Tween-80 101 % of control | dose: 400.0 mg/kg/injection, schedule: Q04DX002 (ip), vehicle: saline with Tween-80 101 % of control

CCCCCCc1cc(-c2cc(CCCCCC)[nH]n2)n[nH]1
inactive: dose: 60.0 mg/kg/injection, schedule: Q01DX005 (ip), vehicle: Klucel (hydroxypropylcellulose) (HPC) 100 % of control | [7] 98 % of control | dose: 240.0 mg/kg/injection, schedule: Q01DX005 (ip), vehicle: Klucel (hydroxypropylcellulose) (HPC) 95 % of control

CCOSN1CCOCC1
inactive: [8] 101 % of control | dose: 50.0 mg/kg/injection, schedule: Q04DX002 (ip), vehicle: saline 101 % of control | dose: 100.0 mg/kg/injection, schedule: Q04DX002 (ip), vehicle: saline 100 % of control and 93 % of control

CCN=C(N)N/N=C(\C)c1ccc2c(c1)Cc1cc(/C(C)=N/NC(N)=NCC)ccc1-2
inactive: dose: 0.39 mg/kg/injection, schedule: Q04DX002 (ip), vehicle: saline with Tween-80 100 % of control | dose: 0.39 mg/kg/injection, schedule: Q04DX002 (ip), vehicle: saline 98 % of control | dose: 0.78 mg/kg/injection, schedule: Q04DX002 (ip), vehicle: saline with Tween-80 94 % of control | dose: 0.78 mg/kg/injection, schedule: Q04DX002 (ip), vehicle: saline 93 % of control | dose: 1.56 mg/kg/injection, schedule: Q04DX002 (ip), vehicle: saline with Tween-80 103 % of control | dose: 1.56 mg/kg/injection, schedule: Q04DX002 (ip), vehicle: saline 102 % of control | dose: 3.12 mg/kg/injection, schedule: Q04DX002 (ip), vehicle: saline with Tween-80 101 % of control | dose: 3.12 mg/kg/injection, schedule: Q04DX002 (ip), vehicle: saline 104 % of control | dose: 6.25 mg/kg/injection, schedule: Q04DX002 (ip), vehicle: saline with Tween-80 102 % of control | dose: 6.25 mg/kg/injection, schedule: Q04DX002 (ip), vehicle: saline 105 % of control | dose: 12.5 mg/kg/injection, schedule: Q04DX002 (ip), vehicle: saline 105 % of control | [8] 102 % of control

O=C(Nc1cccc(Cl)c1Cl)c1cc(/C=C/c2ccc([N+](=O)[O-])cc2)on1
inactive: [6] 95 % of control | [3] 91 % of control and 96 % of control | [4] 87 % of control and 95 % of control | [5] 97 % of control

O=C(O)Cc1cccc(S(=O)(=O)F)c1
inactive: [3] 104 % of control | [4] 100 % of control
